In patent publication US9730944B2, “Antiviral activity of novel bicyclic heterocycles” (priority 2010, dated 2017):
In brackets after ≈: the same amount, converted by molar mass. Like-named read-outs stand apart in the source and are kept apart here.

What was measured:
HIV-1 strain IIIB = test: Inhibition of replication of HIV-1 (IIIB strain) in MT-4 cells, MTT assay; assay type: cell-based; conditions: Human immunodeficiency virus 1, IIIB, MT4, 120 h, read-out: EC50 (μM) HIV-1 (IIIB)
HIV-2 strain (ROD) = test: Inhibition of replication of HIV-2 (ROD strain) in MT-4 cells, MTT assay; assay type: cell-based; conditions: Human immunodeficiency virus 2, MT4, 120 h, read-out: EC50 (μM) HIV-2 (ROD)
poliovirus (PV type 1) = test: microbe, parasite or virus in culture; assay type: cell-based; conditions: Enterovirus C, read-out: PV-1 EC50
poliovirus (PV type 2) = test: microbe, parasite or virus in culture; assay type: cell-based; conditions: Enterovirus C, read-out: PV-2 EC50
poliovirus (PV type 3) = test: microbe, parasite or virus in culture; assay type: cell-based; conditions: Enterovirus C, read-out: PV-3 EC50
in vitro [1] = conditions: human
in vitro [2] = conditions: African green monkey, PV CC50
in vitro [3] = conditions: human, PV CC50
[4] = MT-4 cells, MTT assay, five days after infection, 50% protection from cytopathic effect

Row | SMILES | EC50 (HIV-1 strain IIIB; [4]) [µM] | EC50 (HIV-2 strain (ROD); [4]) [µM] | EC50 (poliovirus (PV type 1); HeLa) [µg/mL] | EC50 (poliovirus (PV type 1); Vero) [µg/mL] | EC50 (poliovirus (PV type 2); HeLa) [µg/mL] | EC50 (poliovirus (PV type 2); Vero) [µg/mL] | EC50 (poliovirus (PV type 3); HeLa) [µg/mL] | EC50 (poliovirus (PV type 3); Vero) [µg/mL] | CC50 (in vitro [1]) [µM] | CC50 (in vitro [2]) [µg/mL] | CC50 (in vitro [3]) [µg/mL] | EC50 (HIV-1 strain IIIB) [µM] | EC50 (HIV-2 strain (ROD)) [µM]
1 | Nc1nc(N2CCN(C(=O)COc3ccc(F)cc3)CC2)c2nc(CCc3ccc(F)cc3)sc2n1 [Example 51, 1-(4-(5-amino-2-(4-fluorophenethyl)thiazolo[5,4-d]pyrimidin-7-yl)piperazin-1-yl)-2-(4-fluorophenoxy)ethanone] | 4.9 | > 210 | 0.13 (≈ 0.255 µM) | 0.12 (≈ 0.235 µM) | 0.23 (≈ 0.45 µM) | 0.13 (≈ 0.255 µM) | 20.2 (≈ 39.5 µM) | 2.68 (≈ 5.25 µM) | 210 | 50 (≈ 97.9 µM) | > 50 |  | 
2 | Cc1cccc(OCC(=O)N2CCN(c3nc(N)nc4sc(CCc5ccc(F)cc5)nc34)CC2)c1 [Example 53, 1-(4-(5-amino-2-(4-fluorophenethyl)thiazolo[5,4-d]pyrimidin-7-yl)piperazin-1-yl)-2-(m-tolyloxy)ethanone] | > 7.96 | > 7.96 | 0.41 (≈ 0.809 µM) | 0.12 (≈ 0.237 µM) | 9.73 (≈ 19.2 µM) | 0.14 (≈ 0.276 µM) | > 16.7 | 1.4 (≈ 2.76 µM) | 201 | > 150 | > 50 |  | 
3 | Nc1nc(N2CCN(C(=O)COc3ccc(Cl)cc3Cl)CC2)c2nc(CCc3ccc(F)cc3)sc2n1 [Example 54, 1-(4-(5-amino-2-(4-fluorophenethyl)thiazolo[5,4-d]pyrimidin-7-yl)piperazin-1-yl)-2-(2,4-dichlorophenoxy)ethanone] | > 157 | > 157 | > 50 | > 50 | ≥ 50 | ≥ 50 | ≥ 50 | > 50 | 157 | 138 (≈ 245 µM) | > 50 |  | 
4 | Nc1nc(N2CCN(C(=O)CCOc3ccc(F)cc3)CC2)c2nc(CCc3ccc(F)cc3)sc2n1 [Example 55, 1-(4-(5-amino-2-(4-fluorophenethyl)thiazolo[5,4-d]pyrimidin-7-yl)piperazin-1-yl)-3-(4-fluorophenoxy)propan-1-one] | > 57.1 | > 57.1 | > 50 | > 50 | ≥ 50 | ≥ 50 | > 50 | > 50 | 57.1 | 94.9 (≈ 181 µM) | > 50 |  | 
5 | CC(c1ccc(F)cc1)c1nc2c(N3CCN(C(=O)COc4ccc(Cl)cc4)CC3)nc(N)nc2s1 (centres unmarked) [Example 66, 1-(4-(5-amino-2-(1-(4-fluorophenyl)ethyl)thiazolo[5,4-d]pyrimidin-7-yl)piperazin-1-yl)-2-(4-chlorophenoxy)ethanone] | > 50 | > 50 | > 50 | 0.29 (≈ 0.55 µM) | ≥ 50 | 0.11 (≈ 0.209 µM) | > 50 | 0.56 (≈ 1.06 µM) | > 50 | 130 (≈ 246 µM) | > 50 |  | 
6 | Nc1nc(N2CCN(C(=O)COc3ccc(Cl)cc3)CC2)c2nc(C(Cc3ccccc3)c3ccc(F)cc3)sc2n1 (centres unmarked) [Example 67, 1-(4-(5-amino-2-(1-(4-fluorophenyl)-2-phenylethyl)thiazolo[5,4-d]pyrimidin-7-yl)piperazin-1-yl)-2-(4-chlorophenoxy)ethanone] | > 50 | > 50 | > 50 | > 50 | ≥ 50 | 11.9 (≈ 19.7 µM) | > 50 | > 50 | > 50 | 114 (≈ 189 µM) | > 50 |  | 
7 | Cc1nc(N2CCN(C(=O)COc3ccc(Cl)cc3)CC2)c2nc(-c3ccc(F)cc3)oc2n1 [Example 168, 2-(4-chlorophenoxy)-1-(4-(2-(4-fluorophenyl)-5-methyl-oxazolo[5,4-d]pyrimidin-7-yl)piperazin-1-yl)ethanone] | > 50 | > 50 | > 50 | > 50 | ≥ 50 | ≥ 50 | > 50 | > 50 | > 50 | 83.3 (≈ 173 µM) | > 50 |  | 
8 | O=C(COc1ccc(Cl)cc1)N1CCN(c2ncnc3oc(Cc4ccc(F)cc4)nc23)CC1 [Example 170, 2-(4-chlorophenoxy)-1-(4-(2-(4-fluorobenzyl)oxazolo[5,4-d]pyrimidin-7-yl)piperazin-1-yl)ethanone] | 4.03 | > 50 | > 50 | > 50 | ≥ 50 | 1.76 (≈ 3.65 µM) | > 50 | > 50 | > 50 | 105 (≈ 218 µM) | > 50 |  | 
9 | Cc1nc(N2CCN(C(=O)COc3ccc(Cl)cc3)CC2)c2nc(Cc3ccc(F)cc3)oc2n1 [Example 171, 2-(4-chlorophenoxy)-1-(4-(2-(4-fluorobenzyl)-5-methyloxazolo[5,4-d]pyrimidin-7-yl)piperazin-1-yl)ethanone] | > 29.6 | > 33 | > 50 | > 50 | ≥ 50 | 0.07 (≈ 0.141 µM) | > 50 | > 50 | 33 | 118 (≈ 238 µM) | 46.1 (≈ 93 µM) |  | 
10 | Nc1nc(N2CCN(C(=O)COc3ccc(Cl)cc3)CC2)c2nc(CCc3ccc(F)cc3)oc2n1 [Example 172, 1-(4-(5-amino-2-(4-fluorophenethyl)oxazolo[5,4-d]pyrimidin-7-yl)piperazin-1-yl)-2-(4-chlorophenoxy)ethanone] |  |  | 32 (≈ 62.6 µM) | 1.16 (≈ 2.27 µM) | 15.6 (≈ 30.6 µM) | 1.11 (≈ 2.17 µM) | > 50 | 4.36 (≈ 8.53 µM) | 32 | 76.2 (≈ 149 µM) | > 50 | 1.82 | ≥ 32
11 | Cc1nc(N2CCN(C(=O)COc3ccc(Cl)cc3)CC2)c2cc(-c3ccc(F)cc3)sc2n1 [Example 325, 2-(4-chlorophenoxy)-1-(4-(6-(4-fluorophenyl)-2-methylthieno[2,3-d]pyrimidin-4-yl)piperazin-1-yl)ethanone] | > 208 | > 208 | > 50 | > 50 | ≥ 50 | > 50 | > 50 | > 50 | 208 | 67.8 (≈ 136 µM) | > 50 |  | 
12 | Nc1nc(N2CCN(C(=O)COc3ccc(Cl)cc3)CC2)c2cc(-c3ccc(F)cc3)sc2n1 [Example 326, 1-(4-(2-amino-6-(4-fluorophenyl)thieno[2,3-d]pyrimidin-4-yl)piperazin-1-yl)-2-(4-chlorophenoxy)ethanone] | > 27.7 | 4.84 | 0.13 (≈ 0.261 µM) | 0.037 (≈ 0.0743 µM) | 0.051 (≈ 0.102 µM) | 0.023 (≈ 0.0462 µM) | 0.13 (≈ 0.261 µM) | 0.17 (≈ 0.341 µM) | 27.7 | 102 (≈ 205 µM) | 35.2 (≈ 70.7 µM) |  | 
13 | O=C(COc1ccc(Cl)cc1)N1CCN(c2nc(-c3ccccc3)nc3sc(-c4ccc(F)cc4)cc23)CC1 [Example 352, 2-(4-chlorophenoxy)-1-(4-(6-(4-fluorophenyl)-2-phenylthieno[2,3-d]pyrimidin-4-yl)piperazin-1-yl)ethanone] | > 224 | > 224 | > 50 | > 50 | ≥ 50 | > 50 | > 50 | > 50 | > 224 | > 150 | > 50 |  | 
14 | CCOC(=O)c1nc(N2CCN(C(=O)COc3ccc(Cl)cc3)CC2)c2cc(-c3ccc(F)cc3)sc2n1 [Example 353, ethyl 4-(4-(2-(4-chlorophenoxy)acetyl)piperazin-1-yl)-6-(4-fluorophenyl)thieno[2,3-d]pyrimidine-2-carboxylate] | > 68.5 | > 68.5 | > 50 | > 50 | ≥ 50 | ≥ 50 | > 50 | > 50 | 68.5 | > 150 | 41.3 (≈ 74.4 µM) |  | 
15 | CCOC(=O)Cc1nc(N2CCN(C(=O)COc3ccc(Cl)cc3)CC2)c2cc(-c3ccc(F)cc3)sc2n1 [Example 354, ethyl 2-(4-(4-(2-(4-chlorophenoxy)acetyl)piperazin-1-yl)-6-(4-fluorophenyl)thieno[2,3-d]pyrimidin-2-yl)acetate] | > 159 | > 159 | > 50 | > 50 | ≥ 50 | > 50 | > 50 | > 50 | 159 | 129 (≈ 227 µM) | > 50 |  | 
16 | NC(=O)c1nc(N2CCN(C(=O)COc3ccc(Cl)cc3)CC2)c2cc(-c3ccc(F)cc3)sc2n1 [Example 355, 4-(4-(2-(4-chlorophenoxy)acetyl)piperazin-1-yl)-6-(4-fluorophenyl)thieno[2,3-d]pyrimidine-2-carboxamide] | > 150 | > 150 | > 50 | > 50 | ≥ 50 | ≥ 50 | > 50 | > 50 | 150 | 117 (≈ 222 µM) | > 50 |  | 
